Source: the NIST ThermoML archive (doi:10.1021/je8006474)
± gives the expanded uncertainty stated by the source.

Columns and labels:
[1] = 101.33 kPa, Liquid, Pycnometric method
[2] = xn = mol fraction of the nth substance listed; conditions: Pycnometric method

Fc1ccc(F)c(F)c1F [1,2,3,4-tetrafluorobenzene]
[1]
Conditions | mass density [kg/m3]
296.4 K | 1408 ± 40
327.4 K | 1360 ± 40

Fc1cc(F)c(F)c(F)c1 [1,2,3,5-tetrafluorobenzene]
[1]
Conditions | mass density [kg/m3]
296.3 K | 1403 ± 37
325.9 K | 1352 ± 37

Fc1cc(F)c(F)c(F)c1 [1,2,3,5-tetrafluorobenzene] + CCn1cc[n+](C)c1.O=S(=O)([N-]S(=O)(=O)C(F)(F)F)C(F)(F)F
[2]
Conditions | molar volume [m3/mol]
283.5 K, Liquid mixture 1, x1 = 0.659 | 0.0001523 ± 1.1e-05
283.5 K, Liquid mixture 2, x1 = 1 | 0.0001053 ± 5.1e-06
298.3 K, Liquid mixture 1, x1 = 0.652 | 0.0001562 ± 1.1e-05
298.3 K, Liquid mixture 2, x1 = 1 | 0.0001069 ± 5.1e-06
316.7 K, Liquid mixture 1, x1 = 0.647 | 0.0001579 ± 1.1e-05
316.7 K, Liquid mixture 2, x1 = 1 | 0.0001096 ± 5.1e-06
333.2 K, Liquid mixture 1, x1 = 0.638 | 0.0001605 ± 1.1e-05
333.2 K, Liquid mixture 2, x1 = 1 | 0.0001119 ± 5.1e-06
353.1 K, Liquid mixture 1, x1 = 0.631 | 0.000164 ± 1.1e-05
353.1 K, Liquid mixture 2, x1 = 1 | 0.0001149 ± 5.1e-06
373 K, Liquid mixture 1, x1 = 0.623 | 0.0001688 ± 1.1e-05
373 K, Liquid mixture 2, x1 = 1 | 0.000118 ± 5.1e-06

Fc1cccc(F)c1F [1,2,3-trifluorobenzene]
[1]
Conditions | mass density [kg/m3]
296 K | 1292 ± 36
331.6 K | 1240 ± 36

Fc1cc(F)c(F)cc1F [1,2,4,5-tetrafluorobenzene]
[1]
Conditions | mass density [kg/m3]
296.7 K | 1421 ± 36
327.4 K | 1370 ± 36

Fc1cc(F)c(F)cc1F [1,2,4,5-tetrafluorobenzene] + CCn1cc[n+](C)c1.O=S(=O)([N-]S(=O)(=O)C(F)(F)F)C(F)(F)F
[2]
Conditions | molar volume [m3/mol]
283.3 K, Liquid mixture 1, x1 = 0.736 | 0.0001422 ± 5.2e-06
283.3 K, Liquid mixture 2, x1 = 0.999 | 0.000103 ± 3e-06
298.2 K, Liquid mixture 1, x1 = 0.731 | 0.0001449 ± 5.2e-06
298.2 K, Liquid mixture 2, x1 = 0.999 | 0.0001047 ± 3e-06
315.5 K, Liquid mixture 1, x1 = 0.725 | 0.0001473 ± 5.2e-06
315.5 K, Liquid mixture 2, x1 = 1 | 0.0001074 ± 3e-06
333.2 K, Liquid mixture 1, x1 = 0.718 | 0.0001508 ± 5.2e-06
333.2 K, Liquid mixture 2, x1 = 1 | 0.0001095 ± 3e-06
353.1 K, Liquid mixture 1, x1 = 0.71 | 0.0001551 ± 5.2e-06
353.1 K, Liquid mixture 2, x1 = 1 | 0.0001124 ± 3e-06
373 K, Liquid mixture 1, x1 = 0.702 | 0.0001595 ± 5.2e-06
373 K, Liquid mixture 2, x1 = 1 | 0.0001157 ± 3e-06

Fc1ccc(F)c(F)c1 [1,2,4-trifluorobenzene] + CCn1cc[n+](C)c1.O=S(=O)([N-]S(=O)(=O)C(F)(F)F)C(F)(F)F
molar volume [m3/mol], [2]
Conditions | Liquid mixture 1, x1 = 0.891 | Liquid mixture 1, x1 = 0.892 | Liquid mixture 1, x1 = 0.893 | Liquid mixture 2, x1 = 0.977
362.4 K | – | – | 0.0001242 ± 5.2e-06 | 0.0001135 ± 6.2e-06
367.4 K | – | 0.0001247 ± 5.2e-06 | – | 0.000114 ± 6.2e-06
372.4 K | 0.0001252 ± 5.2e-06 | – | – | 0.0001145 ± 6.2e-06

Fc1cc(F)cc(F)c1 [1,3,5-trifluorobenzene] + CCn1cc[n+](C)c1.O=S(=O)([N-]S(=O)(=O)C(F)(F)F)C(F)(F)F
[2]
Conditions | molar volume [m3/mol]
283.5 K, Liquid mixture 1, x1 = 0.497 | 0.0001754 ± 1.3e-05
283.5 K, Liquid mixture 2, x1 = 1 | 0.0001013 ± 3.6e-06
298.2 K, Liquid mixture 1, x1 = 0.498 | 0.0001762 ± 1.3e-05
298.2 K, Liquid mixture 2, x1 = 1 | 0.0001035 ± 3.6e-06
316.6 K, Liquid mixture 1, x1 = 0.487 | 0.000179 ± 1.3e-05
316.6 K, Liquid mixture 2, x1 = 1 | 0.0001057 ± 3.6e-06
333.2 K, Liquid mixture 1, x1 = 0.482 | 0.0001815 ± 1.3e-05
333.2 K, Liquid mixture 2, x1 = 1 | 0.000108 ± 3.6e-06
353.1 K, Liquid mixture 1, x1 = 0.478 | 0.000183 ± 1.3e-05
353.1 K, Liquid mixture 2, x1 = 1 | 0.0001108 ± 3.6e-06
373 K, Liquid mixture 1, x1 = 0.482 | 0.0001846 ± 1.3e-05
373 K, Liquid mixture 2, x1 = 1 | 0.0001144 ± 3.6e-06

Fc1cccc(F)c1 [1,3-difluorobenzene] + CCn1cc[n+](C)c1.O=S(=O)([N-]S(=O)(=O)C(F)(F)F)C(F)(F)F
[2]
Conditions | molar volume [m3/mol]
283.3 K, Liquid mixture 1, x1 = 0.757 | 0.000134 ± 7.2e-06
283.3 K, Liquid mixture 2, x1 = 1 | 9.82e-05 ± 7.6e-06
294.4 K, Liquid mixture 1, x1 = 0.755 | 0.0001363 ± 7.2e-06
294.4 K, Liquid mixture 2, x1 = 1 | 9.93e-05 ± 7.6e-06
316.1 K, Liquid mixture 1, x1 = 0.753 | 0.0001404 ± 7.2e-06
316.1 K, Liquid mixture 2, x1 = 1 | 0.000102 ± 7.6e-06
333.3 K, Liquid mixture 1, x1 = 0.748 | 0.0001429 ± 7.2e-06
333.3 K, Liquid mixture 2, x1 = 1 | 0.000104 ± 7.6e-06
353.1 K, Liquid mixture 1, x1 = 0.742 | 0.000146 ± 7.2e-06
353.1 K, Liquid mixture 2, x1 = 1 | 0.0001065 ± 7.6e-06
373 K, Liquid mixture 1, x1 = 0.736 | 0.0001492 ± 7.2e-06
373 K, Liquid mixture 2, x1 = 1 | 0.000109 ± 7.6e-06

Fc1ccc(F)cc1 [1,4-difluorobenzene] + CCn1cc[n+](C)c1.O=S(=O)([N-]S(=O)(=O)C(F)(F)F)C(F)(F)F
[2]
Conditions | molar volume [m3/mol]
283.4 K, Liquid mixture 1, x1 = 0.816 | 0.0001239 ± 7.2e-06
283.4 K, Liquid mixture 2, x1 = 1 | 9.76e-05 ± 6.4e-06
294.4 K, Liquid mixture 1, x1 = 0.814 | 0.0001255 ± 7.2e-06
294.4 K, Liquid mixture 2, x1 = 1 | 9.88e-05 ± 6.4e-06
316.2 K, Liquid mixture 1, x1 = 0.81 | 0.0001288 ± 7.2e-06
316.2 K, Liquid mixture 2, x1 = 1 | 0.000101 ± 6.4e-06
343.2 K, Liquid mixture 1, x1 = 0.807 | 0.0001337 ± 7.2e-06
343.2 K, Liquid mixture 2, x1 = 0.999 | 0.0001038 ± 6.4e-06
353.1 K, Liquid mixture 1, x1 = 0.804 | 0.0001354 ± 7.2e-06
353.1 K, Liquid mixture 2, x1 = 0.999 | 0.000105 ± 6.4e-06
373 K, Liquid mixture 1, x1 = 0.799 | 0.0001387 ± 7.2e-06
373 K, Liquid mixture 2, x1 = 0.999 | 0.0001069 ± 6.4e-06

Fc1ccccc1 [fluorobenzene] + CCn1cc[n+](C)c1.O=S(=O)([N-]S(=O)(=O)C(F)(F)F)C(F)(F)F
[2]
Conditions | molar volume [m3/mol]
282.5 K, Liquid mixture 1, x1 = 0.875 | 0.0001125 ± 5.6e-06
282.5 K, Liquid mixture 2, x1 = 0.992 | 9.31e-05 ± 2.4e-06
297.9 K, Liquid mixture 1, x1 = 0.875 | 0.0001137 ± 5.6e-06
297.9 K, Liquid mixture 2, x1 = 0.991 | 9.45e-05 ± 2.4e-06
315.5 K, Liquid mixture 1, x1 = 0.874 | 0.000115 ± 5.6e-06
315.5 K, Liquid mixture 2, x1 = 0.99 | 9.61e-05 ± 2.4e-06
333.2 K, Liquid mixture 1, x1 = 0.872 | 0.0001169 ± 5.6e-06
333.2 K, Liquid mixture 2, x1 = 0.989 | 9.84e-05 ± 2.4e-06
353.1 K, Liquid mixture 1, x1 = 0.869 | 0.0001197 ± 5.6e-06
353.1 K, Liquid mixture 2, x1 = 0.989 | 0.000101 ± 2.4e-06
373 K, Liquid mixture 1, x1 = 0.865 | 0.0001231 ± 5.6e-06
373 K, Liquid mixture 2, x1 = 0.989 | 0.0001035 ± 2.4e-06

Fc1cc(F)c(F)c(F)c1F [pentafluorobenzene] + CCn1cc[n+](C)c1.O=S(=O)([N-]S(=O)(=O)C(F)(F)F)C(F)(F)F
[2]
Conditions | molar volume [m3/mol]
283.4 K, Liquid mixture 1, x1 = 0.715 | 0.0001484 ± 6.2e-06
283.4 K, Liquid mixture 2, x1 = 0.997 | 0.0001093 ± 4.8e-06
298.2 K, Liquid mixture 1, x1 = 0.704 | 0.0001523 ± 6.2e-06
298.2 K, Liquid mixture 2, x1 = 0.998 | 0.0001109 ± 4.8e-06
316.6 K, Liquid mixture 1, x1 = 0.696 | 0.0001552 ± 6.2e-06
316.6 K, Liquid mixture 2, x1 = 0.997 | 0.0001139 ± 4.8e-06
333.2 K, Liquid mixture 1, x1 = 0.681 | 0.0001605 ± 6.2e-06
333.2 K, Liquid mixture 2, x1 = 1 | 0.0001155 ± 4.8e-06
353.1 K, Liquid mixture 1, x1 = 0.669 | 0.0001652 ± 6.2e-06
353.1 K, Liquid mixture 2, x1 = 1 | 0.0001187 ± 4.8e-06
373 K, Liquid mixture 1, x1 = 0.657 | 0.0001692 ± 6.2e-06
373 K, Liquid mixture 2, x1 = 1 | 0.0001228 ± 4.8e-06
